# Assays:
# [1] = In vivo microdialysis in adult female Wistar rats: extracellular (ECF) phenytoin levels in cerebral cortex in the absence of a P-gp inhibitor; conditions: rat, cerebral cortex extracellular fluid (microdialysate), ip, 50 mg/kg phenytoin i.p., after maximum levels reached, read-out: average half-life of decrease of ECF concentrations of phenytoin (converted)
# Protocol: (§1) In vivo microdialysis in Adult Female Wistar Rats
# (§2) The combination of phenytoin (Aldrich, Steinheim, Germany) and a P-gp inhibitor, e.g. PSC833) is given via the microdialysis probe in the right frontal cortex, while a probe in the left cortex served as a vehicle control site. Perfusion with the P-gp inhibitor started 15 to 60 minutes prior to i.p. administration of 50 mg/kg phenytoin. • Animals: Adult female Wistar rats (Harlan-Winkelmann, Germany) kept under controlled environmental conditions are used in the study. • Implantation of guide cannulae: Guide cannulae (CMA/12 polyurethane, Camegie Medicine, Sweden) are implanted into the left and right frontal (motor) cortex under anesthesia. The tips of the guide are positioned at rostral +3.2, lateral +3.2 or 3.2 and ventral 2.0 mm to bregma, coordinates according to Paxinos and Watson, The rat brain in stereotaxic coordinates, Sydney, Academic Press, 1986. • Microdialysis procedure: Microdialysis experiments are performed following a recovery period of at least 3 days after surgery. The microdialysis probe is lowered through the guide cannula to a depth of 5.0 mm according to bregma. 14 to 16 h after insertion, perfusion of the probe is started using Ringer solution (in mM 147 Na^+, 2.3 Ca^2+, 4.0 K^+and 155.6 Cr, pH 6.0). […]
# P-glycoprotein (P-gp) = experiment: In vivo microdialysis in adult female Wistar rats: effect of local P-gp inhibitor perfusion on ECF levels of phenytoin in cerebral cortex; parameters: species or system rat
# Protocol: as §1, §2
Structure (SMILES),half-life [1],"increase of ECF levels of phenytoin above control (ECF plasma ratio of treated site vs vehicle treated controls) (P-glycoprotein (P-gp); 2 mM PSC833 via microdialysis probe, phenytoin 50 mg/kg i.p., ECF plasma ratio comparison)","maximum increase of ECF levels of phenytoin compared to untreated site (P-glycoprotein (P-gp); 2 mM PSC833 via right microdialysis probe started 15 min before phenytoin 50 mg/kg i.p., left cortex vehicle site)"
"O=C1NC(=O)C(c2ccccc2)(c2ccccc2)N1 [phenytoin, 5,5-diphenyl-2,4-imidazolidinedione]",~4 h,–,–
"C/C=C/C[C@@H](C)C(=O)[C@H]1C(=O)N[C@@H](C(C)C)C(=O)N(C)CC(=O)N(C)[C@@H](CC(C)C)C(=O)N[C@@H](C(C)C)C(=O)N(C)[C@@H](CC(C)C)C(=O)N[C@@H](C)C(=O)N[C@H](C)C(=O)N(C)[C@@H](CC(C)C)C(=O)N(C)[C@@H](CC(C)C)C(=O)N(C)[C@@H](C(C)C)C(=O)N1C [PSC833, [3′-desoxy-3′-oxo-MeBmt]^1-[Val]^2-Ciclosporin A]",–,about 150%,70±20%

# Reference: US20070142266A1, “Combination comprising a P-gp inhibitor and an anti-epileptic drug” (priority 2001, published 2007)
